Regarding `COC(=O)c1nc(N2CCOC2=O)c2cc(Cc3ccc(F)cc3)cnc2c1O`, the melting point (commonly the temperature, or range, at which the solid turns liquid) is 256 °C (dec.).
Regarding `COC(=O)c1nc(N2CCCC2=O)c2cc(Cc3ccc(F)cc3)cnc2c1O`, the melting point is 260 to 262 °C.
`CC(=O)N1CCC(OC(=O)c2nc(C#CCNS(C)(=O)=O)c3cc(Cc4ccc(F)cc4)cnc3c2O)CC1` came in with a melting point of 192 to 193 °C.
Consider `CN(C)NC(=O)c1nc(C#CCNS(C)(=O)=O)c2cc(Cc3ccc(F)cc3)cnc2c1O`, for which the melting point was 229 to 230 °C (dec.).
For the compound `COC(=O)c1cc(Br)c2cc(Cc3ccc(F)cc3)cnc2c1O`, the melting point worked out at 152 °C.
For `CCCOC(=O)c1cc(C(=O)O)c2cc(Cc3ccc(F)cc3)cnc2c1O` the value was 249 to 251 °C (dec.); for `COCCOC(=O)c1cc(C(=O)O)c2cc(Cc3ccc(F)cc3)cnc2c1O`, 234 to 235 °C (dec.); for `COCCCCC(=O)c1cc(C(=O)O)c2cc(Cc3ccc(F)cc3)cnc2c1O`, 216 to 218 °C.
To `COC(=O)c1cc(NC(=O)C(F)(F)F)c2cc(Cc3ccc(F)cc3)cnc2c1O` belongs 191 to 192 °C; to `O=C1CCc2cc3cc(Cc4ccc(F)cc4)cnc3c(O)c21`, 195 to 197 °C; to `COC(=O)c1cc(NC(=N)N)c2cc(Cc3ccc(F)cc3)cnc2c1O.Cl`, 261.5 to 262.5 °C.
Turning to `COC(=O)c1cc(N(C=O)C=O)c2cc(Cc3ccc(F)cc3)cnc2c1O`, the melting point lay in the range of 243 to 245 °C.
For `CCN(c1cc(C(=O)OC)c(O)c2ncc(Cc3ccc(F)cc3)cc12)S(C)(=O)=O` the value was 149 to 150 °C.
To `COC(=O)c1cc(C(=O)OCc2ccccc2)c2cc(Cc3ccc(F)cc3)cnc2c1O` belongs 131 to 133 °C.
Compound `COC(=O)Cc1cc(C(=O)OC)c(O)c2ncc(Cc3ccc(F)cc3)cc12` registered a melting point of 168 to 169 °C.
`NC(=O)c1cc(C(=O)O)c2cc(Cc3ccc(F)cc3)cnc2c1O` yielded a melting point of 212 to 213 °C.
Take `COCCOC(=O)c1cc(C(=O)NOC)c(O)c2ncc(Cc3ccc(F)cc3)cc12`: the melting point is 166 to 168 °C.
To `COC(=O)c1cc(CCC(=O)O)c2cc(Cc3ccc(F)cc3)cnc2c1O` belongs 254 to 256 °C.
Consider `COC(=O)CCc1cc(C(=O)OC)c(O)c2c1CC(Cc1ccc(F)cc1)CN2` (stereo not drawn), for which the melting point lay within 140 to 141 °C.
For `COC(=O)c1cc(-c2ccccc2C(=O)O)c2cc(Cc3ccc(F)cc3)cnc2c1O` the value was 250 to 252 °C; for `COC(=O)c1cc(C(N)=O)c2cc(Cc3ccc(F)cc3)cnc2c1OC(C)=O`, 206 °C.
For `CCNC(=O)Nc1cc(C(=O)OC)c(O)c2ncc(Cc3ccc(F)cc3)cc12` the value was 280 to 282 °C.
With `COC(=O)c1cc(NC(=O)C2CCCCC2)c2cc(Cc3ccc(F)cc3)cnc2c1O`, the melting point lay within 250 to 251 °C.
Turning to `COC(=O)c1cc(NC(=O)c2ccccc2)c2cc(Cc3ccc(F)cc3)cnc2c1O`, the melting point was in the range of 247 to 249 °C.
In the case of `COC(=O)c1cc(NC(=O)Cc2ccc(F)cc2)c2cc(Cc3ccc(F)cc3)cnc2c1O`, the melting point lay in the range of 239 to 240 °C.
For `CNC(=S)Nc1cc(C(=O)OC)c(O)c2ncc(Cc3ccc(F)cc3)cc12` the value was 189 to 191 °C; for `COC(=O)c1cc(NC(=O)c2ccc(Cl)cc2)c2cc(Cc3ccc(F)cc3)cnc2c1O`, 253 to 254 °C; for `COC(=O)c1cc(N2CCOCC2)c2cc(Cc3ccc(F)cc3)cnc2c1O`, 119 to 120 °C.
In the case of `COC(=O)c1cc(N2CCCCC2)c2cc(Cc3ccc(F)cc3)cnc2c1O`, the melting point lay in the range of 133 to 134 °C.
`COC(=O)C(=O)Nc1cc(C(=O)OC)c(O)c2ncc(Cc3ccc(F)cc3)cc12` had a melting point of 168 to 170 °C.
The compound `COC(=O)c1cc(NC(=O)COc2ccccc2)c2cc(Cc3ccc(F)cc3)cnc2c1O` registered a melting point of 172 to 173 °C.
Regarding `COC(=O)c1cc(NC(=O)c2cc(C)on2)c2cc(Cc3ccc(F)cc3)cnc2c1O`, the melting point was in the range of 182 to 183 °C.
The compound `CC(=O)N1CCC(OC(=O)c2cc(C(=O)O)c3cc(Cc4ccc(F)cc4)cnc3c2O)CC1` gave a melting point of 230 to 232 °C.
Regarding `CC(=O)N1CCC(OC(=O)c2cc(C(=O)NN(C)C)c3cc(Cc4ccc(F)cc4)cnc3c2O)CC1`, the melting point was in the range of 92 to 93 °C.
In turn, `COCCC(=O)Nc1cc(C(=O)OC2CCN(C(C)=O)CC2)c(O)c2ncc(Cc3ccc(F)cc3)cc12` yielded a melting point of 89 to 90 °C.
With `COC(=O)c1cc(C#N)c2cc(Cc3ccc(F)cc3)cnc2c1O`, the melting point is 178 to 179 °C.
For `COC(=O)c1cc(C(=O)[O-])c2cc(Cc3ccc(F)cc3)cnc2c1O.[Na+]`, the melting point is over 208 °C.
In turn, `COC(=O)c1cc(C(=O)NCCC2CCOCC2)c2cc(Cc3ccc(F)cc3)cnc2c1O` yielded a melting point of 198 to 199 °C.
`COC(=O)c1cc(C(=O)N2CCCOCC2)c2cc(Cc3ccc(F)cc3)cnc2c1O` returned a melting point of 136 to 137 °C.
Consider `COC(=O)c1cc(C(=O)N2CCSCC2)c2cc(Cc3ccc(F)cc3)cnc2c1O`, for which the melting point lay within 184 to 185 °C.
For `COC(=O)c1cc(C(=O)N2COCC2(C)C)c2cc(Cc3ccc(F)cc3)cnc2c1O` the value was 149 to 150 °C.
Compound `COC(=O)c1cc(C(=O)Nc2ccncn2)c2cc(Cc3ccc(F)cc3)cnc2c1O` yielded a melting point of 241 to 242 °C.
The compound `COCC(=O)NNC(=O)c1cc(C(=O)OC)c(O)c2ncc(Cc3ccc(F)cc3)cc12` displayed a melting point of 181 to 182 °C.
To `COC(=O)c1cc(C(=O)NCC(=O)O)c2cc(Cc3ccc(F)cc3)cnc2c1O` belongs 246 to 247 °C; to `CCOCCNC(=O)c1cc(C(=O)OC)c(O)c2ncc(Cc3ccc(F)cc3)cc12`, 174 to 175 °C.
To `COC(=O)c1cc(C(=O)NC2CCCCC2)c2cc(Cc3ccc(F)cc3)cnc2c1O` belongs 212 to 213 °C; to `COC(=O)c1cc(C(=O)NC2CCCC2)c2cc(Cc3ccc(F)cc3)cnc2c1O`, 221 to 222 °C; to `COC(=O)c1cc(C(=O)NN2CCOCC2)c2cc(Cc3ccc(F)cc3)cnc2c1O`, over 250 °C.
In the case of `COC(=O)c1cc(C(=O)NNC=O)c2cc(Cc3ccc(F)cc3)cnc2c1O`, the melting point was 249 to 250 °C.
`COC(=O)c1cc(C(=O)NN(C)C)c2cc(Cc3ccc(F)cc3)cnc2c1O` had a melting point of 198 to 199 °C.
Compound `COC(=O)c1cc(C(=O)NCCF)c2cc(Cc3ccc(F)cc3)cnc2c1O` gave a melting point of 216 to 217 °C.
`COC(=O)c1cc(C(=O)NN)c2cc(Cc3ccc(F)cc3)cnc2c1O` registered a melting point of 156 to 157 °C.
For `COC(=O)c1cc(C(=O)NCCOc2ccccc2)c2cc(Cc3ccc(F)cc3)cnc2c1O` the value was 194 to 195 °C; for `COC(=O)CNC(=O)c1cc(C(=O)OC)c(O)c2ncc(Cc3ccc(F)cc3)cc12`, 209 to 210 °C.
The compound `COC(=O)c1cc(C(=O)NNC(=O)c2ccccc2)c2cc(Cc3ccc(F)cc3)cnc2c1O` registered a melting point of 227 to 229 °C.
For `COC(=O)c1cc(C(=O)N2CCC(CO)CC2)c2cc(Cc3ccc(F)cc3)cnc2c1O` the value was 161 to 162 °C.
`CCOC(=O)c1cc(C(=O)O)c2cc(Cc3ccc(F)cc3)cnc2c1O` returned a melting point of 238 to 239 °C.

For the origin of these results see US7358249B2, “Heterocyclic compounds having inhibitory activity against HIV integrase” (Shionogi & Co., Ltd., priority 2002, dated 2008).
